Reference: patent US11512074B2, “Substituted diamino heterocyclic carboxamide compound and a composition containing the compound and use thereof” (Shenzhen TargetRx, Inc., priority 2018, dated 2022)

Assays:
Assay type in all cases: cell-based
[1] = system: MOLM-13 cells; experiment: Inhibition of cell MOLM-13 proliferation (CTG assay); details: Homo sapiens, 72 hours, read-out: MOLM-1 IC50
Excerpt: (§1) Cell MV-4-11 (ATCC, Cat. No. CRL-9591), cell MOLM-13 (COBIOER, Cat. No. CBP60678), RPMI-1640 (GIBCO, Cat. No. A10491-01), penicillin-streptomycin (GIBCO, Cat. No. 15140-122), fetal bovine serum (GIBCO, Cat. No. 10099-141), phosphate buffer solution PBS (GIBCO, Cat. No. 10010-031), DMSO (Sigma, Cat. No. D8418-1L), CelltiterGlo Assay kit (CTG) (Promega, Cat. No. G7573), 96-well plate with transparent flat bottom and black walls (PerkinElmer, Cat. No. 6005680-50), plate shaker (QILINBEIER, Cat. No. B-9002), centrifuge (Eppendorf, Cat. No. 5804R), CO2 incubator (Thermo Scientific, Cat. No. 371), microscope (OLYMPUS Cat. No. CKX41), multi-plate reader (PerkinElmer, Cat. No. EnVision).
(§2) (2) Preparation of Cell Suspension • a) The medium was collected from the culture bottle and centrifuged at 1000 rpm for 5 min. • b) The supernatant was discarded, and the cells were resuspended in medium containing 10% fetal bovine serum, and counted to prepare a cell suspension (cell viability was greater than 90%). • c) The cell suspension was added into a 96-well plate, with […] in each well, namely 5000 MV-4-11 cells/well; 5000 MOLM-13 cells/well. • d) The cell plate was cultured overnight in a 37° C., 5% CO2 incubator.
(§3) Dilution of Compounds in DMSO: • a) MV-4-11 cells: The compounds were diluted with DMSO from 10 mM to 60 uM, and then subjected to a 3-fold serial gradient dilution in DMSO from 60 uM, resulting in 9 concentrations. • b) MOLM-13 cells: The compounds were diluted with DMSO from 10 mM to 200 uM, and then subjected to a 3-fold serial gradient dilution in DMSO from 200 uM, resulting in 9 concentrations. • c) Compound Taxol was diluted with DMSO from 10 mM to 200 uM, and then subjected to a 3-fold serial gradient dilution in DMSO from 200 uM, resulting in 9 concentrations.
(§4) (4) Treatment of Cells with Compounds (after the Overnight Incubation of the Cell Plate) • a) Each well was replenished with 99 μl of growth medium containing 10% FBS, and then 1 μl of the diluted compound was added to the well. The concentration of DMSO was 0.5%. • b) Concentrations of the tested compounds were: MV-4-11 cells: 300, 100, 33.3, 11.1, 3.7, 1.23, 0.41, 0.137, 0.046, 0 [nM]. • MOLM-13 cells: 1000, 333.3, 111.1, 37.04, 12.35, 4.1, 1.37, 0.46, 0.15, 0 [nM]. • c) Concentrations of control compound Taxol were: 1000, 333.3, 111.1, 37.04, 12.35, 4.12, 1.37, 0.46, 0.15, 0 [nM]. • d) The cell plate was placed in the incubator for 72 hours.
(§5) (5) CTG Assay • a) The test plate was placed at room temperature and equilibrated for 30 minutes, and 60 μl of the culture medium was discarded. • b) 60 μl of CTG reagent (CelltiterGlo kit) was added, and the plate was placed on a rapid plate shaker to shake for 2 min, and then let it stand at room temperature for 20 min. • c) Envision was used to read the values.
(§6) IC50 values were calculated using GraphPad Prism 6 software. The IC50 (half inhibitory concentration) values of the compounds were obtained by the following non-linear fitting formula. Y=Bottom+(Top−Bottom)/(1+10^((Log IC50−X)*HillSlope)) • X: Log value of the compound concentration • Y: Inhibition rate (% inhibition) % inhibition (inhibition rate)=100*(value of the High Control-value of the test compound well)/(value of the High Control-value of the Low Control)

[2] = system: MV-4-11 cells; experiment: Inhibition of cell MV-4-11 proliferation (CTG assay); details: Homo sapiens, MV4-11, 72 hours
Excerpt: as §1, §2, §3, §4, §5, §6

[3] = system: Ba/F3 FLT3-ITD cells; experiment: Inhibition of Ba/F3 FLT3-ITD cell proliferation (CTG); details: 72 hours, read-out: BaF3 [FLT3-ITD] IC50
Experimental: Cell lines were cultured under the condition of 37° C., 5% CO2 and 95% humidity: cell line Ba/F3 parental (suspended, 3000 cells/well, medium was RPMI-1640+10% FBS+8 ng/ml IL-3), cell line Ba/F3 FLT3-ITD (suspended, 3000 cells/well, medium was RPMI-1640+10% FBS)
Reagents and materials: Fetal bovine serum (FBS, GBICO, Cat. No. 10099-141), CellTiter-Glo® Luminescent Cell Viability Assay (Promega, Cat. No. G7572), 96-well plate with transparent flat bottom and black walls (Corning®, Cat. No. 3603), control compound AC220 (Selleck, Cat. No. S1526).
Cell Culture and Inoculation: • 1. Cells in the logarithmic growth phase were harvested and counted using a platelet counter. The cell viability was determined by trypan blue exclusion method to ensure that the cell viability was greater than 90%; • 2. The cell concentration was adjusted and 90 μL of the cell suspension was added into a 96-well plate respectively; • 3. The cells in the 96-well plate were cultured overnight under the condition of 37° C., 5% CO2 and 95% humidity.
Drug Dilution and Dosing: • 1. The 10-fold drug solutions were prepared with a maximum concentration of 100 μM, which was diluted using a 3.16-fold serial gradient dilution, resulting in 9 concentrations. 10 μL of the drug solutions was added to each well of the 96-well plate inoculated with Ba/F3 parental cells; and each drug concentration was set in triplicate. • 2. The 10-fold drug solutions were prepared with a maximum concentration of 10 μM, which was diluted using a 3.16-fold serial gradient dilution, resulting in 9 concentrations. 10 μL of the drug solutions was added to each well of the 96-well plate inoculated with Ba/F3 FLT3-ITD cells; and each drug concentration was set in triplicate. • 3. The cells in the 96-well plate with drugs were cultured at 37° C., 5% CO2 and 95% humidity for 72 hours, and then CTG analysis was carried out.
Plate Reading at the End Point: • 1. CTG reagent was thawed and the cell plate was equilibrated to room temperature for 30 minutes; • 2. Equal volume of the CTG solution was added to each well; • 3. The cell plate was shaked on the orbital shaker for 5 minutes to lyse the cells; • 4. The cell plate was placed at room temperature for 20 minutes to stabilize the cold light signal; • 5. The cold light values were read.
GraphPad Prism 8.0 software was used to analyze the data, and the data was fitted using the non-linear S-curve regression to get a dose-effect curve, and IC50 values were calculated. Cell viability (%)=(Lum of test drug−Lum of medium control)/(Lum of cell control−Lum of medium control)×100%.

| SMILES | IC50 [1] | IC50 [2] | IC50 [3] |
| --- | --- | --- | --- |
| [2H]C([2H])([2H])Oc1cc(Nc2nc(NC3CCOCC3)c(CC)nc2C(N)=O)ccc1N1CCC(N2CCN(C)CC2)CC1 [Compound T-1, 6-ethyl-3-((3-(methoxy-d3)-4-(4-(4-methylpiperazin-1-yl)piperidin-1-yl)phenyl)amino)-5-((tetrahydro-2H-pyran-4-yl)amino)pyrazine-2-carboxamide] | 15 nM | 2.17 nM | 46.5 nM |
| CCc1nc(C(N)=O)c(Nc2ccc(N3CCC(N4CCN(C)CC4)CC3)c(OC)c2)nc1NC1CCOCC1 [Gilteritinib, 6-ethyl-3-((3-methoxy-4-(4-(4-methylpiperazin-1-yl)piperidin-1-yl)phenyl)amino)-5-((tetrahydro-2H-pyran-4-yl)amino)pyrazine-2-carboxamide, reference compound] | 14.3 nM | 2.23 nM | – |
| [2H]C([2H])([2H])N1CCN(C2CCN(c3ccc(Nc4nc(NC5CCOCC5)c(C([2H])([2H])C([2H])([2H])[2H])nc4C(N)=O)cc3OC)CC2)CC1 [Compound T-5, 6-(ethyl-d5)-3-((3-methoxy-4-(4-(4-(methyl-d3)piperazin-1-yl)piperidin-1-yl)phenyl)amino)-5-((tetrahydro-2H-pyran-4-yl)amino)pyrazine-2-carboxamide] | 12 nM | 2.01 nM | 94.4 nM |
| [2H]C([2H])([2H])Oc1cc(Nc2nc(NC3CCOCC3)c(CC)nc2C(N)=O)ccc1N1CCC(N2CCN(C([2H])([2H])[2H])CC2)CC1 [Compound T-3, 6-ethyl-3-((3-(methoxy-d3)-4-(4-(4-(methyl-d3)piperazin-1-yl)piperidin-1-yl)phenyl)amino)-5-((tetrahydro-2H-pyran-4-yl)amino)pyrazine-2-carboxamide] | 14.2 nM | 2.25 nM | 89 nM |

Now from value to molecule:

| IC50 [1] | IC50 [2] | IC50 [3] | SMILES |
| --- | --- | --- | --- |
| 14.5 nM | 2.03 nM | 72 nM | [2H]C([2H])([2H])N1C([2H])([2H])C([2H])([2H])N(C2CCN(c3ccc(Nc4nc(NC5CCOCC5)c(CC)nc4C(N)=O)cc3OC)CC2)C([2H])([2H])C1([2H])[2H] [Compound T-9, 6-ethyl-3-((3-methoxy-4-(4-(4-(methyl-d3)piperazin-1-yl-2,2,3,3,5,5,6,6-d8)piperidin-1-yl)phenyl)amino)-5-((tetrahydro-2H-pyran-4-yl)amino)pyrazine-2-carboxamide] |
| – | 2.17 nM | 85 nM | [2H]C1([2H])N(C)C([2H])([2H])C([2H])([2H])N(C2CCN(c3ccc(Nc4nc(NC5CCOCC5)c(CC)nc4C(N)=O)cc3OC)CC2)C1([2H])[2H] [Compound T-8, 6-ethyl-3-((3-methoxy-4-(4-(4-methylpiperazin-1-yl-2,2,3,3,5,5,6,6-d8)piperidin-1-yl)phenyl)amino)-5-((tetrahydro-2H-pyran-4-yl)amino)pyrazine-2-carboxamide] |
| 14.3 nM | 2.35 nM | 51.3 nM | [2H]C([2H])([2H])N1CCN(C2CCN(c3ccc(Nc4nc(NC5CCOCC5)c(CC)nc4C(N)=O)cc3OC)CC2)CC1 [Compound T-2, 6-ethyl-3-((3-methoxy-4-(4-(4-(methyl-d3)piperazin-1-yl)piperidin-1-yl)phenyl)amino)-5-((tetrahydro-2H-pyran-4-yl)amino)pyrazine-2-carboxamide] |
